Several values for one entry are separate records, joined by “and”; a condition that tells them apart may be missing. Identical values can stand only once.
What was measured:
cAMP = cAMP FRET imaging in neonatal rat cardiomyocytes; type: cell-based; conditions: applied after AS
Method: Primary cultures of cardiac ventricular myocytes from 1-3 days old Sprague Dawley rats (Charles River Laboratories, Wilmington, Mass.) were prepared as described. Dostal, D. E. et al., Am. J. Physiol., 263, […]-[…] (1992). Cells were transfected with a FRET-based sensor for cAMP (Zaccolo, M. et al., Science, 295, 1711-1715 (2002)) and imaged 48 hrs after transfection. During the experiments, cells were continuously perfused with HEPES buffered Ringer's modified saline (1 mmol/LCaCl2) at room temperature. Cells were imaged on an inverted Olympus IX50 microscope upon excitation at 430 nm. Mongillo, M. et al., Circ. Res., 98, 226-234 (2006). Image analysis was performed by using ImageJ (Rasband, W. S., ImageJ, National Institutes of Health, Bethesda, Md., USA). At each time point, FRET values were measured as the 480 nm/535 nm emission ratio intensity (R) and were normalized to the 480 nm/535 nm value at time 0s (R0). Agents that increase peak Ca^2+ transients coupled to increased sarcomere shortening often do so via a rise in intracellular cAMP and subsequent activation of protein kinase A ([…]. et al., Curr. Med. Chem., 10, 967-981 (2003). To test whether this applied to AS, real-time imaging of cAMP on transfected neonatal rat cardiomyocytes was performed with a cAMP FRET-probe. Zaccolo, M. et al., Science, 295, 1711-1715 (2002). Upon exposure to 1 mM AS, the FRET signal was unchanged (0.3%±0.1%, n=23, p=NS), whereas subsequent application of norepinephrine (10 μM) or phosphodiesterase inhibitor IBMX (100 μM) both increased it by 12% (p<10^-6) (FIG. 2A). Pre-treatment of adult mouse myocytes with the PKA inhibitor […]

cardiomyocytes = assay: Intracellular thiol quantitation (glutathione S-bimane fluorescence, two-photon microscopy); type: cell-based, mouse; conditions: GSH (ethyl ester) 4 mM for 3 hrs, n=40
Description: The cationic potentiometric fluorescent dye tetramethylrhodamine methyl ester (TMRM) was used to monitor changes in ΔΨm as previously described. Cortassa, S. et al., Biophys. J., 87, 2060-2073 (2004). The production of the fluorescent glutathione adduct GSB from the reaction of cell permeant monochlorobimane (MCB) with reduced glutathione (GSH), catalyzed by glutathione S-transferase, was used to measure intracellular glutathione levels, as described. Cortassa, S. et al., Biophys. J., 87, 2060-2073 (2004). Experimental recordings started after exposing the cardiomyocytes to an experimental Tyrode's solution. […] Images were recorded using a two photon laser scanning microscope (Bio-Rad MRC-1024MP) with excitation at 740 nm (Tsunami Ti:Sa laser, Spectra-Physics). The red emission of […] was collected at 605±25 nm and the blue fluorescence of GSB was collected at its maximal emission (480 nm). Images were analyzed offline using ItnageJ software (Wayne Rasband, National Institutes of Health, http://rsb.info.nih.gov/ij/). […]
HNO targets thiol groups on selective proteins. […] Pre-treatment with GSH enhanced intracellular thiol equivalents (+6±1.5% in fluorescence a.u. vs., controls, n=40, p<0.05), as determined by fluorescence assay of glutathione S-bimane production using two-photon microscopy. […]

NC[C@H](O)c1ccc(O)c(O)c1 [norepinephrine]
increase of cAMP FRET signal (cAMP; norepinephrine 10 μM): 12%

CC(C)Cn1c(=O)n(C)c(=O)c2[nH]cnc21 [IBMX]
increase of cAMP FRET signal (cAMP; IBMX 100 μM): 12%

CCOC(=O)CNC(=O)[C@H](CS)NC(=O)CC[C@H](N)C(=O)O [GSH, GSH ethyl ester]
increase of intracellular thiol equivalents (fluorescence a.u. vs. controls) (cardiomyocytes): 6% and 6±1.5%
